Data on one compound can be found in article PMC5506883 (Heliyon, 2017).

Broadly, the IC50 is the point on the concentration scale where inhibition reaches its midpoint. A higher IC50 goes with weaker potency in that assay.

In one assay the test system is xanthine oxidase. The note with it: ref Sheu and Chiang, 1997; cited from earlier work.
In assay [1] the target is Horse butyrylcholinesterase (EC 3.1.1.8) (Equus caballus, UniProt P81908). Put plainly: Anticholinesterase assay. The format is biochemical. The note with it: Butyrylcholinesterase inhibition activity IC50 μM ± SEM, mean of three experiments with SEM; 15 min at 25 °C, pH 8.0.
Horse butyrylcholinesterase (EC 3.1.1.8), sequence (P81908 whole entry): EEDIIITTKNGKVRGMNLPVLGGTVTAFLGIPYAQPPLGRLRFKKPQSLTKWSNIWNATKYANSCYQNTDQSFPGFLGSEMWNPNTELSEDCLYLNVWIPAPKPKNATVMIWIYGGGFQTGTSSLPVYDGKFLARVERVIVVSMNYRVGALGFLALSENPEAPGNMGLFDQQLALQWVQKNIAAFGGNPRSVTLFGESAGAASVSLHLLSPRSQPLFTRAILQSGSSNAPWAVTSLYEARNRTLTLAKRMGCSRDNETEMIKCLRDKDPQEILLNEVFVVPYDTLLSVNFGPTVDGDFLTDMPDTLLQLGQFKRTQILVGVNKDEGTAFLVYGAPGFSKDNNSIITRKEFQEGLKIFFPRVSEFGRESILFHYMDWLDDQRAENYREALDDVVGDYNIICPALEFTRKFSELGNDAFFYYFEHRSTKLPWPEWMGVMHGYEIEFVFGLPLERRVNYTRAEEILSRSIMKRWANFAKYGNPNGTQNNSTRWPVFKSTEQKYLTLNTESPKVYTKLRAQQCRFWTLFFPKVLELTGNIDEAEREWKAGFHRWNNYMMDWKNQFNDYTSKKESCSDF

`Oc1ccc2c(O)c3ccccc3cc2c1O` [Compound 1, anthracene-1,2,10-triol]: the “xanthine oxidase inhibitory activity at concentration” value in the assay with xanthine oxidase was 68.35 µM. Half-maximal inhibition in assay [1] (IC50) required 89.3 ± 0.21 µM.
